Results reported in paper PMC3759295 (Toxicology letters, 2013).

Test system: CYP1A1 mRNA in primary human hepatocytes
Test: CYP1A1 mRNA expression in primary human hepatocytes
Format: cell-based
[1] = hepatocyte culture LH45, 10 µM, 24 h
[2] = hepatocyte culture LH45, 50 µM, 24 h
[3] = hepatocyte culture LH46, 10 µM, 24 h
[4] = hepatocyte culture LH46, 50 µM, 24 h
[5] = hepatocyte culture LH47, 50 µM, 24 h
[6] = hepatocyte culture LH48 (so in the source), 50 µM, 24 h

CYP1A1 mRNA fold induction over the vehicle-treated cells, LH45 (10 µM) [fold]	CYP1A1 mRNA fold induction over the vehicle-treated cells, LH46 (10 µM) [fold]	CYP1A1 mRNA fold induction over the vehicle-treated cells, LH45 (50 µM) [fold]	CYP1A1 mRNA fold induction over the vehicle-treated cells, LH46 (50 µM) [fold]	CYP1A1 mRNA fold induction over the vehicle-treated cells, LH47 (50 µM) [fold]	CYP1A1 mRNA fold induction over the vehicle-treated cells, LH48 (50 µM) [fold]	SMILES	CYP1A1 mRNA fold induction over the vehicle-treated cells, LH45 [1] [fold]	CYP1A1 mRNA fold induction over the vehicle-treated cells, LH45 [2] [fold]	CYP1A1 mRNA fold induction over the vehicle-treated cells, LH46 [3] [fold]	CYP1A1 mRNA fold induction over the vehicle-treated cells, LH46 [4] [fold]	CYP1A1 mRNA fold induction over the vehicle-treated cells, LH47 [5] [fold]	CYP1A1 mRNA fold induction over the vehicle-treated cells, LH48 [6] [fold]
2.34 ± 0.28	0.55 ± 0.03	0.69 ± 0.25	0.91 ± 0.04	0.57 ± 0.09	0.07 ± 0.02	C[C@@H]1O[C@@H](OC[C@H]2O[C@@H](Oc3cc4c(O)cc(O)cc4[o+]c3-c3ccc(O)c(O)c3)[C@H](O)[C@@H](O)[C@@H]2O)[C@H](O)[C@H](O)[C@H]1O.[Cl-] [CYA-2, cyanidin-3-O-rutinoside chloride]	–	–	–	–	–	–
1.31 ± 0.25	2.97 ± 0.39	0.46 ± 0.03	0.28 ± 0.05	0.51 ± 0.16	0.05 ± 0.02	OC[C@H]1O[C@@H](O[C@H]2[C@@H](Oc3cc4c(O)cc(O)cc4[o+]c3-c3ccc(O)c(O)c3)O[C@H](CO)[C@@H](O)[C@@H]2O)[C@H](O)[C@@H](O)[C@@H]1O.[Cl-] [CYA-4, cyanidin-3-O-sophoroside chloride]	–	–	–	–	–	–
0.69 ± 0.06	0.67 ± 0.07	1.16 ± 0.17	0.61 ± 0.08	0.34 ± 0.11	0.07 ± 0.01	Oc1cc(O)c2cc(O[C@@H]3OC[C@H](O)[C@H](O)[C@H]3O)c(-c3ccc(O)c(O)c3)[o+]c2c1.[Cl-] [CYA-5, cyanidin-3-O-arabinoside chloride]	–	–	–	–	–	–
0.77 ± 0.12	1.19 ± 0.14	0.73 ± 0.04	1.36 ± 0.03	0.31 ±0.03	0.07 ± 0.00	C[C@@H]1O[C@@H](Oc2cc3c(O)cc(O)cc3[o+]c2-c2ccc(O)c(O)c2)[C@H](O)[C@H](O)[C@H]1O.[Cl-] [CYA-6, cyanidin-3-O-rhamnoside chloride]	–	–	–	–	–	–
0.65 ± 0.11	2.62 ± 0.41	0.34 ± 0.06	1.85 ± 0.09	0.25 ± 0.02	0.05 ± 0.02	OC[C@H]1O[C@@H](Oc2cc3c(O)cc(O)cc3[o+]c2-c2ccc(O)c(O)c2)[C@H](O)[C@@H](O)[C@H]1O.[Cl-] [CYA-7, cyanidin-3-O-galactoside chloride]	–	–	–	–	–	–
0.26 ± 0.01	1.48 ± 1.14	0.20 ± 0.04	1.72 ± 0.72	2.44	0.02 ± 0.00	OC[C@H]1O[C@@H](Oc2cc3c(O)cc(O)cc3[o+]c2-c2ccc(O)c(O)c2)[C@H](O[C@@H]2OC[C@@H](O)[C@H](O)[C@H]2O)[C@@H](O)[C@@H]1O.[Cl-] [CYA-8, cyanidin-3-O-sambubioside chloride]	–	–	–	–	–	–
0.32 ± 0.12	0.91 ± 0.11	0.61 ± 0.05	1.77 ± 0.49	0.11 ± 0.17	0.09 ± 0.05	OC[C@H]1O[C@@H](Oc2cc3c(O)cc(O)cc3[o+]c2-c2ccc(O)c(O)c2)[C@H](O[C@@H]2OC[C@@H](O)[C@H](O)[C@H]2O)[C@@H](O)[C@H]1O.[Cl-] [CYA-9, cyanidin-3-O-lathyroside chloride]	–	–	–	–	–	–
–	–	–	–	–	–	OC[C@H]1O[C@@H](Oc2cc3c(O)cc(O)cc3[o+]c2-c2cc(O)c(O)c(O)c2)[C@H](O)[C@@H](O)[C@@H]1O.[Cl-] [DEL-1, delphinidin-3-O-glucoside chloride]	1.80 ± 0.11	1.50 ± 0.21	1.99 ± 0.12	0.80 ± 0.07	1.01 ± 0.12	0.01 ± 0.00
–	–	–	–	–	–	C[C@@H]1O[C@@H](OC[C@H]2O[C@@H](Oc3cc4c(O)cc(O)cc4[o+]c3-c3cc(O)c(O)c(O)c3)[C@H](O)[C@@H](O)[C@@H]2O)[C@H](O)[C@H](O)[C@H]1O.[Cl-] [DEL-2, delphinidin-3-O-rutinoside chloride]	1.53 ± 0.36	0.53 ± 0.11	1.34 ± 0.10	0.68 ± 0.01	0.23 ± 0.05	0.02 ± 0.01
–	–	–	–	–	–	OCC1OC(Oc2cc3c(OC4OC(CO)C(O)C(O)C4O)cc(O)cc3[o+]c2-c2cc(O)c(O)c(O)c2)C(O)C(O)C1O.[Cl-] (stereo not drawn) [DEL-3, delphinidin-3,5-di-O-glucoside chloride]	0.82 ± 0.02	1.70 ± 3.26	0.85 ± 0.06	1.14 ± 0.21	0.39 ± 0.06	0.02 ± 0.01
–	–	–	–	–	–	OC[C@H]1O[C@@H](Oc2cc3c(O)cc(O)cc3[o+]c2-c2cc(O)c(O)c(O)c2)[C@H](O[C@@H]2OC[C@@H](O)[C@H](O)[C@H]2O)[C@@H](O)[C@@H]1O.[Cl-] [DEL-4, delphinidin-3-O-sambubioside chloride]	0.26 ± 0.21	0.34 ± 0.09	1.11 ± 0.20	1.31 ± 0.05	0.21 ± 0.26	0.07 ± 0.01
–	–	–	–	–	–	C[C@@H]1O[C@@H](Oc2cc3c(O)cc(O)cc3[o+]c2-c2cc(O)c(O)c(O)c2)[C@H](O)[C@H](O)[C@H]1O.[Cl-] [DEL-5, delphinidin-3-O-rhamnoside chloride]	0.48 ± 0.01	0.40 ± 0.09	0.98 ± 0.15	1.19 ± 0.18	0.26 ± 0.01	0.01 ± 0.01
–	–	–	–	–	–	COc1cc(-c2[o+]c3cc(O)cc(O[C@@H]4O[C@H](CO)[C@@H](O)[C@H](O)[C@H]4O)c3cc2O[C@@H]2O[C@H](CO)[C@@H](O)[C@H](O)[C@H]2O)cc(OC)c1O.[Cl-] [MAL-2, malvidin-3,5-di-O-glucoside chloride]	1.14 ± 0.28	0.44 ± 0.01	1.72 ± 0.39	1.64 ± 0.38	0.56 ± 0.07	0.93 ± 0.09
–	–	–	–	–	–	COc1cc(-c2[o+]c3cc(O)cc(O)c3cc2O[C@@H]2O[C@H](CO)[C@H](O)[C@H](O)[C@H]2O)cc(OC)c1O.[Cl-] [MAL-3, malvidin-3-O-galactoside chloride]	0.12 ± 0.00	0.28 ± 0.04	0.87 ± 0.02	1.32 ± 0.05	0.54 ± 0.02	0.33 ± 0.02
0.70 ± 0.17	1.49 ± 0.10	1.17 ± 0.14	2.21 ± 0.66	0.59 ± 0.52	0.98 ± 0.27	OC[C@H]1O[C@@H](Oc2cc3c(O[C@@H]4O[C@H](CO)[C@@H](O)[C@H](O)[C@H]4O)cc(O)cc3[o+]c2-c2ccc(O)cc2)[C@H](O)[C@@H](O)[C@@H]1O [PEL-1, pelargonidin-3,5-di-O-glucoside chloride]	–	–	–	–	–	–
–	–	–	–	–	–	COc1cc(-c2[o+]c3cc(O)cc(O)c3cc2O[C@@H]2O[C@H](CO)[C@@H](O)[C@H](O)[C@H]2O)ccc1O.[Cl-] [PEO-1, peonidin-3-O-glucoside chloride]	0.21 ± 0.03	0.80 ± 0.22	2.14 ± 0.18	2.48 ± 0.57	0.51 ± 0.07	0.08 ± 0.03
